Assay results: patent US11166934B2 (Azcuris Co., Ltd., priority 2017, dated 2021)
Like-named read-outs stand apart in the source and are kept apart here.

Experiments:
[1] = molecular target: binding of TSLP to TSLPR (Homo sapiens, UniProt Q969D9); assay: ELISA-based TSLP-TSLPR interaction assay (FLAG-TSLP, TSLPR-His, HRP); settings: for inhibitory effects on the binding of TSLP to TSLP receptor (in words): treated alone
[2] = system: TSLP-mediated phosphorylation of STAT5 in HMC-1 human mast cell line; assay: Cell-based efficacy evaluation using FACS: intracellular phosphorylation of STAT5 after TSLP treatment of HMC-1 cells; settings: for Degrees of intracellular phosphorylation of STAT5 molecules (%): HMC-1 cells, TSLP 100 ng/mL, 30 min, control treated with TSLP alone = 100%
Description: The binding of TSLP to TSLP receptor activates various signaling pathways, mainly the JAK/STAT pathway. TSLP-mediated signaling is well known to specifically phosphorylate STAT5 among STAT molecules.
In this example, this fact was confirmed through the following experiment.
First, HMC-1, a human mast cell line, was cultured until an appropriate number of cells were maintained in a 96-well plate. […] Cells were fixed with Cytofix. Subsequently, cells were permeabilized with a permeabilization buffer and stained with anti-pSTAT5 antibody at 4° C. for 30 min. Cells were washed three times with the same buffer and analyzed by flow cytometry. […] The intracellular phosphorylation of STAT5 molecules in the control was 100%.

[3] = read-out: TSLP-TSLPR inhibitions (%)

Sequence of binding of TSLP to TSLPR (Q969D9 29-159): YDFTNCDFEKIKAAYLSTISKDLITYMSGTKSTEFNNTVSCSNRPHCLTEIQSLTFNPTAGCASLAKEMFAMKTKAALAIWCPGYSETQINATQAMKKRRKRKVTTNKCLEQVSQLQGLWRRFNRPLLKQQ

SMILES | inhibition at 150 µM [1, 3] | inhibition at 300 µM [1, 3] | inhibitory effects on the binding of TSLP to TSLP receptor (in words) [1] | other results
O=c1cc(-c2ccccc2)oc2cc(O)c(O)c(O)c12 [Formula 1, baicalein] | – | – | – | inhibition at 100 µM ([1]; read-out: TSLP-TSLPR inhibitions (%), 0.1 mM, Table 5): 3.2 ± 1.3%; inhibition at 300 µM ([1]; read-out: TSLP-TSLPR inhibitions (%), 0.3 mM, Table 2): 45.8 ± 0.7%; inhibition at 300 µM ([1]; read-out: TSLP-TSLPR inhibitions (%), 0.3 mM, Table 6): 16.5 ± 1.6%; Degrees of intracellular phosphorylation of STAT5 molecules (%) ([2]; 3 μM): 65.7%; Degrees of intracellular phosphorylation of STAT5 molecules (%) ([2]; 10 μM): 61.6%; effect on phosphorylation of STAT5 molecules (in words) ([2]; summary of Table 1): inhibit the phosphorylation of STAT5 molecules
Oc1ccc(-c2[o+]c3cc(O)cc(O)c3cc2O)cc1 [Formula 2, pelargonidin chloride] | 6.3 ± 0.1% | 13.1 ± 5.8% | – | –
O=c1c(O)c(-c2ccc(O)cc2)oc2cc(O)cc(O)c12 [Formula 3, kaempferol] | 0.6 ± 3.7% | – | – | –
O=C1/C(=C2\Nc3ccccc3C2=O)Nc2ccccc21 [Formula 4, indigo dye] | 3.5 ± 2.7% | – | – | –
CN(C)CCn1c(=O)c2nc(-c3ccccc3)oc2c2ccccc21 [Formula 5, 5-(2-(dimethylamino)ethyl)-2-phenyloxazolo[4,5-c]quinolin-4(5H)-one] | 10.2 ± 17% | 21.6 ± 3.4% | insignificant inhibitory effects | inhibition at 100 µM [1, 3]: 6.5 ± 8.6%
CN(C)CCOc1nc2ccccc2c2oc(-c3ccccc3)nc12 [Formula 6, N,N-dimethyl-2-((2-phenyloxazolo[4,5-c]quinolin4-yl)oxy)ethanamine] | 5.4 ± 0.7% | 19.3 ± 3% | insignificant inhibitory effects | –
